This note sets out measurements from US8492614B2, “Plant biochemical systems and uses thereof” (The Board of Trustees of the University of Illinois, priority 2007, dated 2013).

Data set [1] deals with glabrous soybean seedlings. Put plainly: UV sensitivity of glabrous versus dense-hair soybean isolines. It counts as in vivo. The note with it: few-hair (glabrous) variety, small amounts of UV.
Description: Varieties that show sensitivity to UV are retained for more detailed testing of responses to UV and exogenous regulators. […] As isoline of hard soy with dense hairs was tested vs. hard soy with few (glafrous) hairs. […] Isogenic lines of Harasoy “dense” (many hairs per area) and “glabrous” (few or no hairs per area) were used to see if hairs themselves directly assisted in protection from UV-B radiation. Seedlings were grown and treated in the same manner as that shown in FIG. 18, then the integrity of the internal structures assessed by TEM as shown in FIG. 18.
Data set [2] in a line: Stability of absorbance spectra of cell free extracts with or without phenylalanine. Conditions: for stability of the extract solution (absorbance spectra, pigments) over time: cell free extracts in buffer, 24 h, room temperature or +4° C., lab lighting. It counts as physicochemical, Arabidopsis. The procedure:
Cell free extracts were left at room temperature for 24 h after a 10^5 μmol m^−2 treatment of UV (366 nm) in lab lighting (which is fluorescent).

The target in data set [3] is T1, prephenate dehydratase (PD1) (Arabidopsis thaliana, UniProt Q9ZUY3).
T1 construct: from tissue; host or cells: aerial portions of etiolated (dark-grown) wild-type Col Arabidopsis seedlings; crude cell-free / cytosolic extract
T1 sequence (Q9ZUY3 25-424): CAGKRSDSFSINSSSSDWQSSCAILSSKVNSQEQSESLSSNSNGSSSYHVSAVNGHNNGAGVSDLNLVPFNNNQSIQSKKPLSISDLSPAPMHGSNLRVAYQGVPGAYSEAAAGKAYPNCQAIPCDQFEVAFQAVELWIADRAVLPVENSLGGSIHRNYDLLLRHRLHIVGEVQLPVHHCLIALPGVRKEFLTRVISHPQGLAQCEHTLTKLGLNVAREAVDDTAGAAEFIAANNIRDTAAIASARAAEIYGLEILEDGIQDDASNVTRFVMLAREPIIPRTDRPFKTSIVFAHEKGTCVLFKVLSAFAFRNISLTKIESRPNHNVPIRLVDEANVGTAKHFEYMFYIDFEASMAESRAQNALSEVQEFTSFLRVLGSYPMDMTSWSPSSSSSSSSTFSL
Put plainly: Prephenate dehydratase activity in Arabidopsis cell free extracts. It counts as biochemical. The note with it: pre-incubation in various concentrations. How it is done:
143:1590-1600). […] Absorbance and stability characteristics are tested at different pH concentrations between 6.8-8.0. Absorbance and stability characteristics are tested at different temperatures and durations of storage on the pigments and phenylalanine characteristics in solution for Arabidopsis and this is done for all crop plant types tested. The aerial portions of six-day-old dark grown Arabidopsis seedlings were harvested into potassium phosphate buffer (pH 7.5; 50 mM), DTT (1 mM), and plant protease cocktail (Sigma), and homogenized for 60 sec at a setting of #6 in a Polytron. Cell debris was removed by centrifugation. All steps were carried out at 4° C. All plants types would be harvested by this method between 6-8 days after planting in darkness. […] Production of phenylpyruvate was determined spectrophotometrically. […] See […] et al., Plant Physiol. 140:844-855.

Data set [4] has as its system soybean. In words: Long-term growth and seed yield of UV-treated soybean supplemented with Phe. It is filed as in vivo, soybean (Glycine max L.). The note with it: Phe supplement before UV (300 nm) on day 3, grown to seed set. The procedure:
Referring to FIG. 22, it was shown that treating soybean with Phe reverses the negative effects of UV-radiation. Seedlings were grown identically to that described for FIGS. 13 and 14, where soybean were supplemented with Phe (+Phe) or not (−Phe). Soybean were grown to seed set in greenhouse conditions where growth characteristics and evaluation of pods and seeds occurred during and after ripening.

The conditions of data set [5]: pH 7.4.
In data set [6] the test system is etiolated Arabidopsis gcr1, gpa1 or pd1 mutants. In words: UV sensitivity of etiolated Arabidopsis mutants with phenylalanine added to the growth media. It is filed as in vivo.

SMILES strings stand for the structures. “Also recorded” adds a separate entry of the source. Where two headings read alike, the source gives them in different places.

Regarding `N[C@@H](Cc1ccccc1)C(=O)O` [phenylalanine], the “correction of UV damage in the glabrous variety” value in data set [1] is “can correct these deficiencies”. For the same molecule, the figures for the “stability of the extract solution (absorbance spectra, pigments) over time” value in data set [2] and in data set [2] (listed as Phenylalanine) were “remain stable over time; also recorded: clear difference in stability in the solution when phenylalanine is added” and “remained stable”, respectively. In data set [2] (extracts with phenylalanine added, UV (366 nm) treated, stored at +4° C. for 4 days), the “deviation from initial 24 h post absorbance spectra” value is “less than 10%”. Also, the “effect of pre-incubation on the reaction producing phenylalanine” value in data set [3] was “inhibited”. Further, the “long-term growth, seed set and seed yield after UV treatment” value in data set [4] was “can reverse the negative effect on yield of UV; also recorded: serves a protective role to the plant in permitting the plant to achieve adult stage and seed set”; in data set [4] (listed as Phe) it was “indistinguishable from untreated seedlings; also recorded: reversal of the negative effects of UV-radiation”. In addition, in data set [5], the “degradation in buffered solution” value is listed as “appeared to not degrade even for days”. The “rescue of UV sensitivity of mutants” value is “can rescue gcr1, gpa1 or pd1 mutants” in data set [6]; “restores waxes, fatty acids, UV-absorbing materials and restores resistance to UV damage in pd1 mutants; also recorded: able to respond to UV like wild type” in data set [6] (listed as Phe).
